The test system of this assay is washed human platelets, TRAP-induced aggregation. Nature of the assay: In vitro test for inhibition of human platelet aggregation induced by TRAP. It is filed as cell-based. The settings on record: 5 μM TRAP; washed human platelets; mean of n experiments; entries marked b measured with a Chronolog aggregometer, others with micro plate reader; read-out: Inhibition of TRAP (5 μM)-induced human platelet aggregation (IC50), mean. From the text: I.b. In vitro Test for Inhibition of Human Platelet Aggregation Induced by TRAP
Introduction: Addition of trombin receptor agonist peptide (TRAP) to washed human platelets (WPL) in vitro induces platelet aggregation. This aggregation can be determined by measuring the optical density of the WPL. The in vitro test described here is used to analyze the activity of a test compound to inhibit TRAP-induced aggregation of human platelets. A micro plate reader is used to measure the activity of several compounds simultaneously.
An alternative vehicle is 0.9% NaCl in MQ H2O. The compound solution (either in MQ H2O or 0.9% NaCl in MQ H2O) is further diluted in 0.9% NaCl in MQ H2O.
Free-flowing blood (at least 100 mL) is taken from a healthy volunteer and collected in 0.1 volume 3.8% sodium citrate. 2H2O in MQ H2O (w/v). The final concentration is 0.38% sodium citrate. The citrated blood is centrifuged at 1,600 N/kg (160 g) in Hettich Rotanta/AP centrifuge (750 rpm) at RT. After 15 min, centrifugation is discontinued with the brake turned off and the supernatant (=PRP) is collected. • 2. Washed platelets (WPL):
After adding freshly made 1 μL PGI2 solution per ml PRP, the suspension is centrifuged at 13,500 N/kg (1,350 g) for 10 min in a Hettich Rotanta/AP centrifuge (i.e., 2,800 rpm) at RT. After gentle resuspension of the pellet in the same volume of fresh Watson buffer containing 5 ng/mL PGI2, the suspension is centrifuged at 1,350 g (2,800 rpm) for 10 min at RT again. The final platelet pellet is resuspended in Watson buffer to give approx. 400,000±50,000 platelets/[…]. • 3. Watson buffer:
134 mM NaCl, 2.9 mM KCl, 12 mM NaHCO3, 0.34 mM Na2HPO4.2H2O, 1 mM MgCl2.6H2O, 5 mM Glucose and 5 mM HEPES in MQ H2O. The pH is adjusted to 7.4 with 1 M NaOH. • 4. Prostaglandin I2 (Sigma, P6188 powder):
The PGI2 stock solution of 1 mg/mL in 1 M KOH is stored in aliquots of 100 μL at −20° C. Immediately before use, a solution of 5 μg/mL in ice-cold 0.9% NaCl in MQ H2O is prepared. • 5. Human Fibrinogen (Kordia/ERL, art nr: FIB 2 powder):
0.5 g fibrinogen powder is dissolved in 50 mL MQ H2O under vacuum. This stock solution is stored in aliquots of 1 mL at −20° C. Before use, a solution of 0.5 mg/mL in saline is prepared.
Before use, a solution of 50 μM TRAP in 0.9% NaCl in MQ H2O is prepared. For each test, a fresh solution is made.
• 1. Sysmex cell counter model KX-21 • 2. Labsystems iEMS reader MF with a 405 nm filter, an orbital shaker set at 1,000 rpm and a constant temperature of 37° C. Absorptions are measured with the Labsystems iEMS program. • 3. Blood collection system 600 mL with needle, art nr P4203 (NPBI) • 4. 96 wells micro plates (Greiner Labortechnik) flat-bottom
Procedure: The WPL concentration is counted in a Sysmex blood cell counter and the suspension is diluted with Watson buffer to obtain a concentration of 400,000±50,000 plt/μL. Before use, WPL is allowed to stabilize at room temperature for at least 20 min but not longer than 3-4 hours.
TRAP-induced aggregation: 150 μL WPL is pipetted into a well of a micro plate. 15 μL test compound or vehicle and 15 μL fibrinogen solution is added and the micro plate is placed in the micro plate reader at 37° C. Then, the optical density (OD) is measured at 405 nm and after shaking for 2 min in the reader, the OD405 is measured again to verify the stability of the platelets (absence of spontaneous platelet aggregation). 20 μL of 50 μM TRAP is added and the OD405 is kinetically measured every min for 14 min at 405 nm. Between two measurements, the plate is shaking for 40 seconds at 1,000 rpm (FIG. 1). For determination of the IC50 of a test compound, each test compound is investigated in at least 2 experiments using WPL from different volunteers.
Evaluation of response: The mean OD of each concentration (including vehicle) is calculated at t=0 min and t=10 min. The percentage inhibition at each concentration is calculated using the formula: […]

As a reminder, the IC50 is the concentration needed to halve the response being measured. Regarding “Methyl O-2,3-di-O-methyl-4-O-<<12-N-<N-(3-keto-benzenesulfonyl)-4-O-{4-(4-piperidinyl)-butyl}-L-tyrosine>-12-aza-3,6,9-trioxa-dodecyl>>-6-O-sulfo-alpha-D-glucopyranosyl-(1->4)-O-2,3-di-O-methyl-beta-D-glucopyranuronosyl-(1->4)-O-2,3,6-tri-O-sulfo-alpha-D-glucopyranosyl-(1->4)-O-2,3-di-O-methyl-alpha-L-idopyranuronosyl-(1>4)-3-O-methyl-2,6-di-O-sulfo-alpha-D-glucopyranoside octakis sodium salt [XIV]”, the IC50 was determined as 80 nM.
